Holding throughout (format): cell-based
One assay has as its system Aspergillus terreus. As to the kind of experiment: MIC determination, broth microdilution method (NCCLS guidelines). As to conditions: A. terreus; for MIC: broth microdilution, 37°C, 24 h; for antimicrobial efficacy: result in words. From the text: (§1) Antifungal activities were studied qualitatively by agar diffusion tests according to the literature (Stuttgart, D. A. V., European Pharmacopoeia, 3rd ed.1997, 13, 118; Afonin, S.; Glaser, R. W.; Berditchevskaia, M.; Wadhwani, P.; Guhrs, K. H.; Mollmann, U.; Perner, A.; Ulrich, A. S. Chembiochem. 2003, 4, (11), 1151-1163; Standards, N. C. f. C. L., Reference Method for Broth Dilution Susceptibility Testing of Filamentous Fungi; Approved Standard. M38-A, Wayne, PA, USA, NCCls 2002, 22) and quantitatively by determination of minimal inhibitory concentration (MIC) according to the NCCLS guidelines using the broth microdilution method. Fifty microliters of the test compound solution in methanol were serially diluted by factor two with the culture medium (RPMI 1640 with L-glutamine, MOPS and without sodium bicarbonate, LONZA Verviers SPRL, Belgium). Then, the wells were inoculated with 50 µL of the test organism to give a final concentration of 6x10^3 CFU mL^-1. After incubation of the microtiter plates at 37°C (Aspergillus terreus) for 24 h, the MIC-values were read with a Nepheloscan Ascent 1.4 automatic plate reader (Lab systems, Vantaa, Finnland) as the lowest dilution of compound allowing no visible growth. The MIC for Fusarium oxysporum and Bacillus subtilis was determined by the agar diffusion method. Fifty microliters of each of the 12 serial twofold dilutions were filled in agar (malt extract agar from Roth, Karlsruhe, Germany; seeded with 0.5 mL of a pretested mycelial solution) holes of 9 mm in diameter. After incubation for 24 h the MIC was read as the lowest concentration giving an inhibition zone.
Background: In broth dilution the organism is exposed to a series of concentrations in liquid medium.

The next assay concerns Bacillus subtilis. As to the kind of experiment: MIC determination / antibacterial activity, agar diffusion method. As to conditions: for antimicrobial efficacy / antibacterial activity: B. subtilis, result in words.
Excerpt: as §1
A general note: A growth-free zone around the sample is the usual read-out of agar diffusion tests.

A further assay concerns Fusarium oxysporum. The experiment in a line: MIC determination, agar diffusion method. As to conditions: 24 h.
Excerpt: as §1, with “Fifty microliters of each of the 12 serial twofold dilutions were filled in agar (malt extract agar from Roth, Karlsruhe, Germany; seeded with 0.5 mL of a pretested mycelial solution) holes of 9 mm in diameter. After incubation for 24 h the MIC was read as the lowest concentration giving an inhibition zone.” left out

Another assay concerns HUVEC. As to the kind of experiment: Antiproliferative assay (methylene blue staining). As to conditions: Homo sapiens. How it is done: (§2) Antiproliferative and Cytotoxic Assays: Cells and culture conditions. Cells of HUVEC (ATCC CRL-1730), K-562 (DSM ACC 10) and HeLa (DSM ACC 57) were cultured in DMEM (CAMBREX 12-[…]), RPMI 1640 (CAMBREX 12-[…]) and RPMI 1640 (CAMBREX 12-[…]) respectively. All cells were grown in the appropriate cell culture medium supplemented with 10 mL L^-1 ultraglutamine 1 (Cambrex 17-[…]/U1), 500 μ[…] gentamicin sulfate (CAMBREX 17-518Z), and 10 % heat inactivated fetal bovine serum (PAA A15-144) at 37 °C in high density polyethylene flasks (NUNC 156340). Antiproliferative assay. The test substances were dissolved in DMSO before being diluted in DMEM. The adherent cells were harvested at the logarithmic growth phase after soft trypsinization, using 0.25 % trypsin in PBS containing 0.02 % EDTA (Biochrom KG L 2163). For each experiment, approximately 10.000 cells were seeded with 0.1 mL culture medium per well of the 96-well microplates (NUNC 167008). Method of evaluation. For estimating the influence of chemical compounds on cell proliferation of K-562, the numbers of viable cells present in multiwell plates were determined via CellTiter-Blue® assay. The indicator dye resazurin was used to measure the metabolic capacity of cells as an indicator of cell viability. […] The optical densities were measured at 660 nm in SUNRISE microplate reader (TECAN). […]

The subject of another assay is K-562. The experiment in a line: Antiproliferative assay (CellTiter-Blue). As to conditions: Homo sapiens, K562; read-out: Gl50 (K-562). Here is the method: as §2
A general note: Resazurin is reduced to fluorescent resorufin, in cell work by metabolically active cells.

For another assay, the system named is HeLa. As to the kind of experiment: Cytotoxic assay (methylene blue staining). As to conditions: Homo sapiens, 72 hours incubation, read-out: Cytotoxicity CC50 (HeLa). Here is the method:
Antiproliferative and Cytotoxic Assays: Cells and culture conditions. Cells of HUVEC (ATCC CRL-1730), K-562 (DSM ACC 10) and HeLa (DSM ACC 57) were cultured in DMEM (CAMBREX 12-614F), RPMI 1640 (CAMBREX 12-167F) and RPMI 1640 (CAMBREX 12-167F) respectively. All cells were grown in the appropriate cell culture medium supplemented with 10 mL L^-1 ultraglutamine 1 (Cambrex 17-605E/U1), 500 µL L^-1 gentamicin sulfate (CAMBREX 17-518Z), and 10 % heat inactivated fetal bovine serum (PAA A15-144) at 37 °C in high density polyethylene flasks (NUNC 156340).
Cytotoxic assay. For the cytotoxic assay, HeLa cells were pre-incubated for 48 hours without the test substances. The dilutions of the compounds were carried out carefully on the subconfluent monolayers of HeLa cells after the pre-incubation time. Cells were incubated with dilutions of the test substances for 72 hours at 37 °C in a humidified atmosphere and 5 % CO2.
Method of evaluation. For estimating the influence of chemical compounds on cell proliferation of K-562, the numbers of viable cells present in multiwell plates were determined via CellTiter-Blue® assay. The indicator dye resazurin was used to measure the metabolic capacity of cells as an indicator of cell viability. […] The optical densities were measured at 660 nm in SUNRISE microplate reader (TECAN). […]

[1] abbreviates: Aspergillus terreus, read-out: MIC.

≈ marks a conversion by molar mass, not a printed value. Like-named read-outs stand apart in the source and are kept apart here.

On to `C[C@@H]1[C@H](O)[C@@H](C)/C=C/C=C/CC/C=C/C=C/C=C/C=C/C(O[C@H]2O[C@H](C)[C@@H](O)[C@H](N)[C@@H]2O)CC2O[C@](O)(CC(O)C(O)CCC(O)CC(O)CC(O)CC(=O)O[C@H]1C)CC(O)C2C(=O)O` (stereo partly shown) [nystatin, reference compound], for which, in the assay with Aspergillus terreus, the MIC (commonly the least concentration at which growth counts as inhibited) came to 12.50 µg/mL (≈ 13.5 µM).
For botryosphaerone D [Compound 4], the “antimicrobial efficacy / antibacterial activity” value in the assay on Bacillus subtilis was “antibacterial activity”.
In the case of `Cc1cc(O)c(C)c2c1Oc1c(CO)c(O)cc(C)c1C(=O)O2` [Compound 3, botryosphaerone C], the “antimicrobial efficacy / antibacterial activity” value in the assay with Bacillus subtilis is “antibacterial activity”. This molecule also registered an MIC in the assay on Bacillus subtilis (Bacillus subtilis, 24 h) of 400 µg/mL (≈ 1260 µM). For the same molecule, the antibacterial activity result in the assay on Bacillus subtilis (Bacillus subtilis, agar diffusion assays, 400 µg mL^-1) was “antibacterial activity”.
On to `Cc1cc(O)c(C)c2c1Oc1c(C=O)c(O)cc(C)c1C(=O)O2` [Compound 2, Botryosphaerone B], for which, in the assay on Aspergillus terreus, the antimicrobial efficacy entry was “active”. Moreover, the MIC in the assay with Aspergillus terreus (setting [1]) came out at 15.6 µg/mL (≈ 49.7 µM); against Fusarium oxysporum it was 75 µg/mL (≈ 239 µM). Besides, in the assay with Bacillus subtilis, the “antimicrobial efficacy / antibacterial activity” value is “active”. Further, the GI50 amounted to 70 nM in the assay on HUVEC and 3 nM in the assay with K-562. In the assay on HeLa, the CC50 (as a rule, the concentration at which the toxic effect on the cells reaches its halfway point) was 36400 nM.
Turning to `Cc1cc(O)cc2c1Oc1c(C=O)c(O)cc(C)c1C(=O)O2` [Compound 1, botryosphaerone A], the antimicrobial efficacy entry in the assay on Aspergillus terreus was “active”. In addition, the MIC with Aspergillus terreus (setting [1]) amounted to 7.81 µg/mL (≈ 26 µM); against Fusarium oxysporum it was 57.5 µg/mL (≈ 191 µM). For the same molecule, in the assay on Bacillus subtilis, the “antimicrobial efficacy / antibacterial activity” value is recorded as “active”. Besides, the GI50 was 1670 nM in the assay with HUVEC and 840 nM in the assay on K-562. Besides, the CC50 in the assay on HeLa was determined as 97000 nM.

(Values after EP2230235A1, “Botryosphaerones, novel depsidones and their use as medicaments” (Leibniz-Institut für Naturstoff-Forschung und …, priority 2009, dated 2010).)
